Molecules are shown by their SMILES.

Here are results for one molecule from patent US20240417687A1, “THYMIC CELLS AND METHODS OF MAKING” (Thymmune Therapeutics, Inc., priority 2021, published 2024).

For this data set, the system named is residual undifferentiated pluripotent cells. Kind of data set: Teratoma formation after transplantation of TEP populations treated with YM155. Type of data set: in vivo. To be noted: TEP population treated prior to transplantation versus not treated. The procedure: An important safety issues to address in iPSC-derived cell therapy products was the possible presence of residual undifferentiated pluripotent cells in the end. Such iPSCs in the product can give rise to teratomas. […] YM155, a Survivin inhibitor and PluriSIn-1, a stearoyl-CoA desaturase inhibitor was tested.

Consider `COCCn1c2c([n+](Cc3cnccn3)c1C)C(=O)c1ccccc1C2=O` [YM155], for which the teratomas in vivo result is given as “smaller teratomas”.
